Measured values reported in US20210137858A1, “COMBINATION FORMULATION CONTAINING COLCHICINE FOR TREATMENT OR ENHANCING THE THERAPY OF LIVER DISEASE” (priority 2019, published 2021).

How the values were obtained:
Format in all cases: in vivo, Wistar Rat
[1] = tested on: liver fibrosis by CCl4; assay: Hydroxyproline assay, CCl4 liver fibrosis, colchicine dose (Examples 1-2); conditions: for Hydroxyproline: CCl4 0.4 g/kg rats
Description: (§1) Male Wistar Rat [about 150 g, 4 to 5-week old]
An administration plan of carbon tetrachloride (CCl4) and colchicine used in this experiment is as follows:
(1) Carbon tetrachloride: Intraperitoneal administration of 0.4 g/kg·bw, administered 3 times per week for 10 weeks • (2) Colchicine: Oral administration of 10, 50, 100 μg/kg·bw, once daily for 10 weeks
(§2) For this experiment, each group was classified as follows, and one group was used by 12 rats.
(3) CCl4-administered group [0.4 g/kg]
(4) CCl4+Colchicine [10 μg/kg]
(5) CCl4+Colchicine [50 μg/kg]
(6) CCl4+Colchicine [100 μg/kg]
The following items were measured to confirm the enhancement of the efficacy for treating liver fibrosis. Fibrosis index items were measured at 10 weeks.
(1) Fibrosis index item: hydroxyproline
Hydroxyproline assay was performed for each group to confirm the levels of […] accumulation in the liver.

[2] = tested on: fibrin accumulation in the liver (CCl4); conditions: DDB 25 mg/kg alone; CCl4 0.4 g/kg rats
Description: as §1
(§3) An administration plan of carbon tetrachloride (CCl4), silymarin, colchicine, and biphenyldimethyl dicarboxylate (DDB) used in this experiment is as follows:
(§4) (1) Carbon tetrachloride: Intraperitoneal administration of 0.4 g/kg·bw, administered 3 times per week for 10 weeks
(§5) (2) Silymarin: Oral administration of 10, 30, 50 mg/kg·bw, administered once a day for 10 weeks
(§6) (3) Colchicine: Oral administration of 10 μg/kg·bw, administered once a day for 10 weeks
(§7) (4) Biphenyldimethyl dicarboxylate (DDB): Oral administration of 10, 20, 25 mg/kg·bw, administered once a day for 10 weeks
(§8) (5) UDCA: Oral administration of 30 mg/kg·bw, administered once a day for 10 weeks
as §2
(§9) (4) CCl4+DDB [25 mg/kg] administered group
(§10) (5) CCl4+Colchicine [10 μg/kg]+DDB [25 mg/kg] administered group
(§11) (6) CCl4+Colchicine [10 μg/kg]+DDB [20 mg/kg] administered group
(§12) (7) CCl4+Colchicine [10 μg/kg]+DDB [10 mg/kg] administered group
(§13) (8) CCl4+Silymarin [50 mg/kg] administered group
(§14) (9) CCl4+Colchicine [10 μg/kg]+Silymarin [50 mg/kg] administered group
(§15) (10) CCl4+Colchicine [10 μg/kg]+Silymarin [30 mg/kg] administered group
(§16) (11) CCl4+Colchicine [10 μg/kg]+Silymarin [10 mg/kg] administered group
(12) CCl4+Colchicine [10 μg/kg]+UDCA [30 mg/kg] administered group […]

[3] = tested on: liver damage caused by CCl4; assay: Blood and serum levels (albumin, ALP, ALT, AST, total protein) in CCl4-administered rats (Examples 3, 4-1 to 4-3)
Description: as §1, §3, §4, §5, §6, §7, §8, §2, §9, §10, §11, §12, §13, §14, §15, §16
(12) CCl4+Colchicine [10 μg/kg]+UDCA [30 mg/kg] administered group
Serum items were measured at 4 weeks and 10 weeks, and histological items were measured at 10 weeks.
(1) Serum enzyme items: Albumin, total protein concentration, ALT, AST, ALP, etc.
(§17) At this time, the dose of colchicine administered was all the same at 10 μg/kg.
as §17, §17

[4] = tested on: liver tissue of CCl4-administered rats; assay: Liver histopathological examination (H&E staining) (Example 4-5); set-up: key to Fatty necrosis / Ballooning degeneration / Fatty change / Fibrosis: 0 point for no disease (NAD); 1 point for mild symptoms; 2 points for moderate symptoms; 3 points for severe symptoms; conditions: DDB [25 mg] alone, 10 weeks
Description: as §1, §3, §4, §2
The following items were measured to confirm the enhancement of the efficacy for the treatment of liver disease (hepatitis, liver fibrosis, etc.). Serum items were measured at 4 weeks and 10 weeks, and histological items were measured at 10 weeks.
(2) Liver tissue Histology: H&E staining
In each group, when the pathological characteristics for fatty necrosis, ballooning, fatty change, and fibrosis may be identified according to severity of disease, it was evaluated by assigning 0 point for no disease (NAD), 1 point for mild symptoms, 2 points for moderate symptoms, and 3 points for severe symptoms.

[5] = DDB 25 mg/kg alone, CCl4 rats, serum

Compound | Hydroxyproline ([1]; colchicine 10 μg/kg oral once daily 10 weeks) | Hydroxyproline ([1]; colchicine 50 μg/kg oral once daily 10 weeks) | Hydroxyproline ([1]; colchicine 100 μg/kg oral once daily 10 weeks) | fibrin (hydroxyproline assay), in words ([1]; colchicine-administered group vs CCl4, Table 1) | Hydroxyproline [2] | ALP [3, 5] [U/L] | ALT [3, 5] [U/L] | AST [3, 5] [U/L] | Albumin [3, 5] [g/dL] | Total protein [3, 5] [g/dL] | ALP (Alkaline phosphatase) level, in words ([3]; vs CCl4 administration, Tables 2 and 4) | Albumin level, in words ([3]; vs level reduced by CCl4, Tables 2-4) | Total protein, in words ([3]; vs value reduced by CCl4, Tables 2-4) | Ballooning degeneration [4] | Fatty change [4] | Fatty necrosis [4] | Fibrosis [4] | Total Score [4]
COc1cc2c(c(OC)c1OC)-c1ccc(OC)c(=O)cc1[C@@H](NC(C)=O)CC2 [Colchicine, colchicine] | 320.12 ± 13.32 μg/g of liver | 313.33 ± 12.50 μg/g of liver | 302.25 ± 10.25 μg/g of liver | significant reduction effect of fibrin |  |  |  |  |  |  |  |  |  |  |  |  |  | 
COC(=O)c1cc(OC)c2c(c1-c1c(C(=O)OC)cc(OC)c3c1OCO3)OCO2 [DDB, biphenyldimethyl dicarboxylate] |  |  |  |  | 317.74 ± 9.24 μg/g of liver | 1428.90 ± 681.53 | 1543.09 ± 408.03 | 1642.24 ± 764.93 | 2.13 ± 0.09 | 5.35 ± 0.28 | the level was increased | tended to be recovered | tended to be recovered | 3 | 1 | 1 | 2 | 7
